Test results as given in US20150190346A1, “COMPOSITIONS AND METHODS FOR TREATMENT OF ABNORMAL CELL GROWTH” (VERASTEM, INC., priority 2014, published 2015).
Where two headings read alike, the source gives them in different places.

Columns and labels:
in vivo = conditions: male, beagle, dog, po
Description: (§1) 4 groups of 1 male beagle dog per group received an oral gavage dose of VS-6063 in various formulations in a 4-session crossover design with a minimum 3-day washout period between dose sessions. In each session, VS-6063, VS-6063-25% SDD in Soluplus/PVP-A, VS-6063-25% physical mixture with Soluplus/PVP-A, and VS-6063-10% SDD in [sequence] L100-55 were administered at a target dose level of 10 mg API/kg. Blood samples (anticoagulant: K2EDTA) were scheduled for collection from each animal prior to dosing and at 0.25, 0.5, 1, 2, 4, 6, 8, 12 and 24 hours after dosing in each dose session. Blood samples were processed for plasma and the plasma was analyzed for VS-6063 by LC-MS/MS. Plasma concentration-time data for individual animals were analyzed to determine the pharmacokinetic profiles of VS-6063.
(§2) 4 groups of 1 male beagle dog per group received an oral gavage dose of VS-6063 in various formulations in a 4-session crossover design with a minimum 3-day washout period between dose sessions. In each session, VS-6063-25% physical mixture with Soluplus/PVP-A and VS-6063-25% SDD in Soluplus/PVP-A were administered at a target dose level of 20 mg API/kg and VS-6063-50% physical mixture with Soluplus/PVP-A was administered at target dose levels of 10 and 20 mg API/kg. Blood samples (anticoagulant: K2EDTA) were scheduled for collection from each animal prior to dosing and at 0.25, 0.5, 1, 2, 4, 6, 8, 12 and 24 hours after dosing in each dose session. Blood samples were processed for plasma and the plasma was analyzed for VS-6063 by LC-MS/MS. Plasma concentration-time data for individual animals were analyzed to determine the pharmacokinetic profiles of VS-6063.
(§3) VS-6063 was formulated (0.934 correction factor) at a target concentration of 10 mg API/mL in 0.5% (w/v) Methocel A4M in water with 0.1% (v/v) Tween 80. VS-6063-25% SDD in Soluplus/PVP-A was formulated (0.25 correction factor) at a target concentration of 10 mg API/mL in 0.5% (w/v) Methocel A4M in water. VS-6063-25% physical mixture with Soluplus/PVP-A was formulated (0.25 correction factor) at a target concentration of 10 mg API/mL in 0.5% (w/v) Methocel A4M in water. VS-6063-10% SDD in [sequence] L100-55 was formulated (0.10 correction factor) at a target concentration of 10 mg API/mL in 0.5% (w/v) Methocel A4M in water.
(§4) VS-6063-25% physical mixture with Soluplus/PVP-A and VS-6063-25% SDD in Soluplus/PVP-A were formulated (0.25 correction factor) at a target concentration of 10 mg API/mL in 0.5% (w/v) Methocel A4M in water. VS-6063-50% Physical mixture with Soluplus/PVP-A was formulated (0.50 correction factor) at target concentrations of 5 mg API/mL and 10 mg API/mL in 0.5% (w/v) Methocel A4M in water.
(§5) 4 groups of 1 male beagle dog per group received an oral gavage dose of VS-6063 in various formulations in a 4-session crossover design with a minimum 3-day washout period between dose sessions. In each session, VS-6063, VS-6063-25% SDD in Soluplus/PVP-A, VS-6063-25% physical mixture with Soluplus/PVP-A and VS-6063-10% SDD in [sequence] […] Food was returned at 4 hours post-dose.
(§6) Prior to dosing, the body weight of each animal was recorded. Doses (rounded to the nearest 0.01 mL) were calculated based on the pretreatment body weight (kg) and a dose volume of 1 mL/kg. Following the oral gavage dose, the gavage tube was flushed with 10 to 20 mL of water prior to removal of the tube. Dosing syringes were weighed immediately prior to and immediately after dosing each animal, and the quantity of formulation administered to each animal was determined from the difference in syringe weights.
(§7) 4 groups of 1 male beagle dog per group received an oral gavage dose of VS-6063 in various formulations in a 4-session crossover design with a minimum 3-day washout period between dose sessions.

[1] = male, beagle, dog, in vivo, po
Description: as §1, §2, §3, §4, §5, §6, §7

[2] = Phase I study: safety and tolerability (adverse events) of VS-6063 tablets; format: in vivo, human (healthy male subjects)
Description: In a Phase I, open-label, single center, single dose, partially randomized trial, the safety, bioavailability, and pharmacodynamics of prototype and reference formulations of VS-6063 were investigated in healthy male subjects. The study was comprised of four periods, each of which adhered to the same study design and involved 24 healthy male subjects between 40 and 65 years of age with a body mass index between 18.0 and 35.0 kg/m^2. Following a 28 day screening period, the subjects were admitted to the clinical unit the morning prior to dosing day (Day −1) and were dosed in the morning of Day 1. Subjects in Regimens A and B were administered VS-6063 following an overnight fast of about 10 hours, while subjects in Regimens C and D were administered VS-6063 within 30 minutes of starting a high fat breakfast, which was consumed within 25 minutes. Subjects remained on site until 36 hours after dosing. There was a minimum washout period of 7 days between the administration of each regimen. A follow-up phone call took place 7 to 10 days post final dose in periods 3 and 4 to ensure the ongoing well-being of the subjects.

Structure (SMILES): CNC(=O)c1ccc(Nc2ncc(C(F)(F)F)c(NCc3nccnc3N(C)S(C)(=O)=O)n2)cc1 [VS-6063]
- Tmax (in vivo; 10 mg/kg): 2 h
- half-life (in vivo; 10 mg/kg, t1/2): ~3.9 h
- Tmax (in vivo): 2 to 4 h
- Mean AUCinf/Dose [1]: 312 ng·h/mL per mg/kg
- Tmax [1]: 2.50 h
- Tmax ([1]; 10 mg/kg): 4 h
- incidence of AEs ([2]; Regimen A (200 mg reference, fasted)): 3 subjects
- incidence of AEs ([2]; Regimen B (100 mg prototype, fasted)): 2 subjects
- incidence of AEs ([2]; Regimen C (fed)): 5 subjects
- incidence of AEs ([2]; Regimen D (fed)): 1 subject
- tolerability ([2]; single dose, fed and fasted, reference and prototype formulations): well tolerated
- serious or severe adverse events ([2]; whole study): no serious adverse events (AEs) or severe AEs
- total AEs reported ([2]; whole study, reported by 9 subjects): 12 AEs
